From patent US20220347187A1, “HETEROCYCLIC COMPOUNDS AS KINASE INHIBITORS” (Nuvation Bio Inc., priority 2019, published 2022) come the findings set out here.

One test deals with T1, CDK2 (cyclin A) (Homo sapiens, UniProt P24941).
T1 construct: purchased Invitrogen Life Technologies (screening service)
Briefly: Z'-LYTE kinase assay. The note with it: ATP 31 μM, 60 minutes. The class given is biochemical. The method, then:
IC50 values of compounds against CDK2 (cyclin A) were determined by Z′-LYTE™. These screening assays were performed at Invitrogen Life Technologies (Grand Island, N.Y.) on a low volume NBS, black 384-well plate (#4514. Corning), 0.1 μL of 100× test compound in 100% DMSO (at specific solutions) was mixed with 2.4 μL of Kinase Buffer (50 mM HEPES pH 7.5, 0.01% BRIJ-35, 10 mM MgCl2, 1 mM EGTA), 5 μL of 2× Kinase (1.22-10.3 ng CDK2/cyclin A)/Peptide (2 μM Ser/Thr 12), and 2.5 μL of 4×ATP solution (31 μM). The plates were shaken for 30 seconds, and incubated for 60 minutes at room temperature. Development Reagent Solution (5 μL of 1:1024 dilution) was added to the plates followed with another 30-second plate shake and the plates were further incubated at room temperature for one hour. The plates were read on fluorescence plate reader with Dual emission at 445 nm and 520 nm.
(§1) The following equations were used for Z′-LYTE™ Screening Assay Data Analysis. Percent inhibition (100-% activity) was fitted to the “four-parameter logistic model” in XLfit for determination of IC50 values.

The next test addresses T2, CDK1 (cyclin B) (Homo sapiens, UniProt P06493).
T2 construct: purchased Invitrogen Life Technologies (screening service)
Briefly: Z'-LYTE kinase assay. The settings on record: ATP 34 μM, 60 minutes. The class given is biochemical. As to the method: IC50 values of compounds against CDK1 (cyclin B) were determined by Z′-LYTE™. These screening assays were performed at Invitrogen Life Technologies (Grand Island, N.Y.) on a low volume NBS, black 384-well plate (#4514, Corning), 0.1 μL of 100× test compound in 100% DMSO (at specific solutions) was mixed with 2.4 μL of Kinase Buffer (50 mM HEPES pH 7.5, 0.01% BRIJ-35, 10 mM MgCl2, 1 mM EGTA), 5 μL of 2× Kinase (3.5-46.4 ng CDK1/cyclin B)/Peptide (2 μM Ser/Thr 18), and 2.5 μL of 4×ATP solution (34 μM). The plates were shaken for 30 seconds, and incubated for 60 minutes at room temperature. Development Reagent Solution (5 μL of 1:1024 dilution) was added to the plates followed with another 30-second plate shake, and the plates were further incubated at room temperature for one hour. The plates were read on fluorescence plate reader with Dual emission at 445 nm and 520 nm.
as §1

Another test has as its target T3, CDK4 (Homo sapiens, UniProt P11802).
T3 construct: purchased Invitrogen PR8064 A
Briefly: In vitro kinase inhibition, luminescence (ADP-Glo) with retinoblastoma as substrate. Format: biochemical. The note with it: ATP 25 μM, 2H at room temperature. As to the method:
(§2) IC50 values of compounds against CDK4 and CDK6 were determined by luminescence using retinoblastoma as substrate. Kinase assays were performed in kinase buffer (#PV6135, Invitrogen, Life Technologies Grand Island. N.Y.) where total reaction volume was […] in 96-well half area white plates (#3693, Costar). One microliter of 25× test compounds at specific concentrations (e.g., final concentration range: 0.1 nM-200 nM) was mixed with 10 μL of 2.5× kinase (5 nM, CDK4 #PR8064 A and CDK6 #PR8422B, Invitrogen) solution and 14 μL of 4× mixed solution with retinoblastoma (1 μM, #12-439, EMD Millipore. Hayward, Calif.) and ATP (25 μM, #V7038, Promega, Madison, Wis.). The plates were covered and incubated for 2H at room temperature. At the end of incubation, 25 μL of stop solution—ADP Glo reagent (#V7002. Promega) was added. After incubation for 45 min at room temperature, 50 μL of detection reagent (##V7002, Promega) was added. Readings were taken at 15 min and 45 min incubation after detection reagent was added in a Synergy Neo Plate reader (BioTek, Winooski, Vt.) at single excitation of 340 nm and Dual emission at 495 nm and 520 nm respectively. The following equations were used in the CDK4 and CDK6 assay data analysis. Percent inhibition (100-% activity) was fitted to the “four-parameter logistic model” in XLfit for determination of IC50 values.
(§3) Percent conversion of enzyme=100−{(RLUNo Drug−No enzyme*100)/RLUNo drug+Enzyme} Equation 1:
(§4) Percent conversion at each data point=100−{(RLUAverage(Drug+enzyme)*100)/RLUNo drug+Enzyme} Equation 2:
(§5) Percent Inhibition=100*(% Conversioneach data point/% ConversionEnzyme) Equation 3: […]

A further test concerns the target T4, CDK6 (Homo sapiens, UniProt Q00534).
T4 construct: purchased Invitrogen PR8422B
The test is described as above. The class given is biochemical. The note with it: ATP 25 μM, 2H at room temperature. As to the method:
as §2, §3, §4, §5

The test system of another test is MCF-7. Briefly: Cancer cell proliferation assay as a single agent (cell viability). The class given is cell-based. The settings on record: Homo sapiens, MCF7; Table 4; Rb positive breast adenocarcinoma; 144H treatment. The method, then: (§6) The effects of test compounds were studied in two breast cancer cell lines of different subtype. The cancer cells (Table 3) were harvested during the logarithmic growth period and counted. Cell concentrations were adjusted to the appropriate number with respective medium and 90 μL cell suspensions were added to 96-well plates. After cells were seeded, the plates were shaken gently to distribute cells evenly and incubated at 37° C., 5% CO2 on day 1.
(§7) Cells were treated with test compounds at 7 to 9 concentrations within a desired concentration range (e.g. 1.1 nM-10 μM) on day 2 by series diluting the test compound stock solution (10 mM in DMSO) with culture medium. Treatment duration was 144H (with a medium change at 72H) for both MCF-7 and DU4475 cells. Cell viability was assessed by Cell Titer-Glo® as recommended by Promega (Cat. No.: G7572), or by resazurin assay (Sigma Aldrich, Cat. No.: R7017) post treatment.
(§8) Cell viability data were plotted using GraphPad Prism (GraphPad Software, Inc., San Diego, Calif.). In addition, a nonlinear regression model with a sigmoidal dose response and variable slope within GraphPad Prism was used to calculate the IC50 value of individual test compounds.

The test system of a further test is DU4475. Described as above. The settings on record: Homo sapiens, DU-4475; Table 4; Rb negative breast carcinoma; 144H treatment. The class given is cell-based. The method, then:
as §6, §7, §8

The next test has as its system MCF-7-PR. Briefly: Cell viability in palbociclib-resistant cell line. The class given is cell-based. The settings on record: MCF-7-PR vs MCF-7. The method, then: as §7, §8
The effects of test compound in a palbociclib-resistant cell line and a parental, non-resistant cell line were compared. The palbociclib-resistant cell line (“MCF-7-PR”) was derived from the parental, non-resistant cell line (MCF-7 breast adenocarcinoma cells) by culture of cells over a period of three months in increasing concentrations of palbociclib, starting from about 350 nM and ending at about 850 nM, the final concentration at which they were then maintained in culture. […]

A further test deals with T5, PI3Kδ (Homo sapiens, UniProt O00329).
T5 construct: purchased Reaction Biology Corporation (service assay)
T5 sequence (O00329 whole entry): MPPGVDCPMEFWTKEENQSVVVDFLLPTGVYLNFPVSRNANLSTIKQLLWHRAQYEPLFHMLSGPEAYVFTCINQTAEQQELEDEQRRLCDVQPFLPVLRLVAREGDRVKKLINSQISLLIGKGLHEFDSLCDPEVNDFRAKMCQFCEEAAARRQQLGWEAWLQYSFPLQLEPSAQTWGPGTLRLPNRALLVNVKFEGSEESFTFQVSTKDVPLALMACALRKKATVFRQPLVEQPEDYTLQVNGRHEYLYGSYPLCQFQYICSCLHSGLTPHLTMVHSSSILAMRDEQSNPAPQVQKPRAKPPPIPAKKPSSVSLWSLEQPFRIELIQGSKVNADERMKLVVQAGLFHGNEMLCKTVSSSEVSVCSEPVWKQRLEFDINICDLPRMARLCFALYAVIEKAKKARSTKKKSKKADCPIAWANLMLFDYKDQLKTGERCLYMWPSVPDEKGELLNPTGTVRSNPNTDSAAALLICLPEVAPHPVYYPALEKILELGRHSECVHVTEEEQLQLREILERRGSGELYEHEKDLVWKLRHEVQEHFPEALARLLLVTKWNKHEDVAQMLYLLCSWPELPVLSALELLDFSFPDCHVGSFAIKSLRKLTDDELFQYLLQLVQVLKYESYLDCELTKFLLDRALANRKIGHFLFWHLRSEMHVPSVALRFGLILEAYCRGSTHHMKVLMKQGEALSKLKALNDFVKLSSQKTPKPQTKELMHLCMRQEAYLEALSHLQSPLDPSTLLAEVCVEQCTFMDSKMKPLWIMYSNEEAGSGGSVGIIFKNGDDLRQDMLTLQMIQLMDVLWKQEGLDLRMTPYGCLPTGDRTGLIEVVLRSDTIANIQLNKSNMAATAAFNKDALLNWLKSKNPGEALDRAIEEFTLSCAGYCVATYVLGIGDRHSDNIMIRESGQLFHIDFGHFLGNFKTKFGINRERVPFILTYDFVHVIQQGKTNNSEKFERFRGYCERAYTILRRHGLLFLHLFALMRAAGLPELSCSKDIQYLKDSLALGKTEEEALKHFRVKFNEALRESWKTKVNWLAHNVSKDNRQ
T5 sequence (P27986 whole entry partner): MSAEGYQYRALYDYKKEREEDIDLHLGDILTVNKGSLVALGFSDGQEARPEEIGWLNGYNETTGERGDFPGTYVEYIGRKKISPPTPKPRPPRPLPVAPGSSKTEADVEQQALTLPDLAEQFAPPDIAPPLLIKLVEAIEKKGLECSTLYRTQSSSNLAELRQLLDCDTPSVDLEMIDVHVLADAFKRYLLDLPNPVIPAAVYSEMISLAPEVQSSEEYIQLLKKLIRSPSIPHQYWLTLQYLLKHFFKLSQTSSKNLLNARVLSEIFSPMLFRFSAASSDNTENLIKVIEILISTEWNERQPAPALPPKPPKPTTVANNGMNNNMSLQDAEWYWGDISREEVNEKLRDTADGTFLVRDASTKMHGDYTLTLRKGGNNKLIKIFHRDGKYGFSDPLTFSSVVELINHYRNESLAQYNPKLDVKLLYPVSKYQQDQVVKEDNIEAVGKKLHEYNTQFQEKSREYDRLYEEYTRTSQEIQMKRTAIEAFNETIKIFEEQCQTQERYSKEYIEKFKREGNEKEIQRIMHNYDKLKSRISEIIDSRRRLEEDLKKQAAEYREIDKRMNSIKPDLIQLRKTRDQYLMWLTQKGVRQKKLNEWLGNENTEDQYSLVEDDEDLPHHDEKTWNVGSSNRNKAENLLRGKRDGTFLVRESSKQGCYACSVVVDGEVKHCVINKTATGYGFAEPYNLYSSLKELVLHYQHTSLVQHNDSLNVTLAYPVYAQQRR
Briefly: PI3Kδ kinase assay (ADP-Glo, Reaction Biology Corporation). Format: biochemical. The method, then: IC50 values of compounds against the PI3KS kinase were determined by an assay performed by Reaction Biology Corporation (Malvern, Pa.). Briefly, this assay was conducted in buffer (Tris-HCl 40 mM (pH7.5), Orthovanadate 3 mM, MgCl2 20 mM, DTT 2 mM, CHAPS 0.05%, DMSO 1%). PI3K8 kinase was added to the reaction solution and mixed gently. The test compounds in 100% DMSO (at specific solutions) were mixed with the kinase reaction mixture to achieve the final compounds at pre-defined concentrations (e.g., range—0.5 nM to 100 μM) by Acoustic technology (Echo550; nanoliter range). After incubating for 10 min at room temp, ATP was added into the reaction mixture to initiate the reaction followed by a 30-min incubation at 30° C. After quenching the reaction with ADP-Glo reagent, the plates were incubated for 40 min. The Detection Mixture was added, and the plate was incubated for an additional 30 min. At the end of incubation, luminescence was measured. For data analysis, the luminescence was converted into μM ADP production based on ADP standard curves. The nonlinear regression to obtain the standard curve and IC50 values was performed using GraphPad Prism (GraphPad Software. Inc., San Diego, Calif.).

Molecules are shown by their SMILES.

T3 sequence (P11802 whole entry): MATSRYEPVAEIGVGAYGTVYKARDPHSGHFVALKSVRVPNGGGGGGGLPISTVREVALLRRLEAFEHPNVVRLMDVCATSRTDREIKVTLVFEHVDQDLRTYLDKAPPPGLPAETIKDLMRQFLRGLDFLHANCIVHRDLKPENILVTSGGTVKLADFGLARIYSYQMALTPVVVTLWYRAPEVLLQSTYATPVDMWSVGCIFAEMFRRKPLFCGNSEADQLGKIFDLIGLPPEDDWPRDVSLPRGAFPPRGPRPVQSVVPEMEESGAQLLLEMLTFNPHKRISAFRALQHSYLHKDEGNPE
T3 sequence (P24385 whole entry partner): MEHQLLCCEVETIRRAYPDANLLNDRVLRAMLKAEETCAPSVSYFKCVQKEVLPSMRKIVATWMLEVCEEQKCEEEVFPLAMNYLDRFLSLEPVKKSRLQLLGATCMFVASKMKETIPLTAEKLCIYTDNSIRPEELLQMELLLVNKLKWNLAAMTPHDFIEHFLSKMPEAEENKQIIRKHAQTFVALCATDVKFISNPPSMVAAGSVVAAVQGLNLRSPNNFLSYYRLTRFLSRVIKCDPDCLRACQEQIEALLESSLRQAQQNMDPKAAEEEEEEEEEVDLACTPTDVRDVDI
T4 sequence (Q00534 whole entry): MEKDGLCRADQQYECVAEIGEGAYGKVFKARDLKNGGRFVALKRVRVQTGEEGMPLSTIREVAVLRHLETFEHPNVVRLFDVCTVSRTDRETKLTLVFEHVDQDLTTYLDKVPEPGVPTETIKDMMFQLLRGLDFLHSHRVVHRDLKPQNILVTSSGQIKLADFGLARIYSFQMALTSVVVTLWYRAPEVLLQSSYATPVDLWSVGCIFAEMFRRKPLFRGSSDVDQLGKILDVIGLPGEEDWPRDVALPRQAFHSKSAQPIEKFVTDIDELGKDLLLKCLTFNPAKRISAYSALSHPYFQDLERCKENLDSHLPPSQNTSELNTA
T4 sequence (P24385 whole entry partner): as the sequence (P24385 whole entry partner) above
T2 sequence (P06493 whole entry): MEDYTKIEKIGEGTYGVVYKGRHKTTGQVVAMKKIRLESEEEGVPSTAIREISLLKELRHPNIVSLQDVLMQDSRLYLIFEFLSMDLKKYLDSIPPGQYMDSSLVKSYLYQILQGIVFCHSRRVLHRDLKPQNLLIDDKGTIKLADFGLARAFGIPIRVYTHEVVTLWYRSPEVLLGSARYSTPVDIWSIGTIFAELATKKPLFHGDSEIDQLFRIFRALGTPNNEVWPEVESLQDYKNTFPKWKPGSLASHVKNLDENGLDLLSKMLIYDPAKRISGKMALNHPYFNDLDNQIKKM
T2 sequence (P14635 whole entry partner): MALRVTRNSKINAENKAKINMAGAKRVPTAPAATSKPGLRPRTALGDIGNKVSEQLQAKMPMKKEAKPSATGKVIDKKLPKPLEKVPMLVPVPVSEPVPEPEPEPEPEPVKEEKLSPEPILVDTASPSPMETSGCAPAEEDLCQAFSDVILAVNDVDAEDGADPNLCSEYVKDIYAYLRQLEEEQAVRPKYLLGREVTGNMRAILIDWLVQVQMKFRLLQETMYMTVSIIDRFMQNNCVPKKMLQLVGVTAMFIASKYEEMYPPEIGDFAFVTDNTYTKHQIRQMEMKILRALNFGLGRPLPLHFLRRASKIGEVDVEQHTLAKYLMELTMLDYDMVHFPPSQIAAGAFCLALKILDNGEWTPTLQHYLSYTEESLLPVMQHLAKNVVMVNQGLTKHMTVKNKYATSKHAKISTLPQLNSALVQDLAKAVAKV

As to `CC(C)N1CCOc2c(F)cc(-c3nc(Nc4ccc(N5CCN(C)C(=O)C5)cn4)ncc3F)cc21` [Compound 86, 4-(6-((5-fluoro-4-(8-fluoro-4-isopropyl-3,4-dihydro-2H-benzo[b][1,4]oxazin-6-yl)pyrimidin-2-yl)amino)pyridin-3-yl)-1-methylpiperazin-2-one], the IC50 is 278 nM on CDK2 (cyclin A); 1480 nM on CDK1 (cyclin B); 1 nM on CDK4; 3 nM at CDK6; 160 nM with MCF-7; 1140 nM with DU4475.

In the case of `CC(C)N1CCOc2c(F)cc(-c3nc(Nc4cccc(N5CCCNCC5)c4)ncc3F)cc21` [Compound 1, N-(3-(1,4-diazepan-1-yl)phenyl)-5-fluoro-4-(8-fluoro-4-isopropyl-3,4-dihydro-2H-benzo[b][1,4]oxazin-6-yl)pyrimidin-2-amine], the 50% inhibitory concentration (IC50) at CDK4 is 40 nM; at CDK6, 53 nM; in the test on MCF-7, 252 nM; with DU4475 it was 285 nM.

Take `CC(=O)c1c(C)c2cnc(Nc3ccc(N4CCNCC4)cn3)nc2n(C2CCCC2)c1=O` [palbociclib, reference compound]: the “resistance to palbociclib compared to parental MCF-7 cells, as increase in cell viability IC50” value with MCF-7-PR was “at least 5 fold”.

Turning to `CCN1CCC(COc2ccc(Nc3cc(-c4cc(F)c5c(c4)N(C(C)C)CCO5)c(F)cn3)nc2)CC1` [Compound 4, N-(5-((1-ethylpiperidin-4-yl)methoxy)pyridin-2-yl)-5-fluoro-4-(8-fluoro-4-isopropyl-3,4-dihydro-2H-benzo[b][1,4]oxazin-6-yl)pyridin-2-amine], the concentration for half-maximal inhibition (IC50) against CDK2 (cyclin A) was 75 nM; against PI3Kδ, > 30200 nM; on CDK1 (cyclin B), 200 nM; at CDK4, 7 nM; on CDK6, 12 nM; in the test on MCF-7, 215 nM. In the test on DU4475, the midpoint of inhibition, the IC50, lay at 275 nM.

Take `CC(C)N1CCOc2c(F)cc(-c3nc(NC4CCN(S(C)(=O)=O)CC4)ncc3F)cc21` [Compound 5, 5-fluoro-4-(8-fluoro-4-isopropyl-3,4-dihydro-2H-benzo[b][1,4]oxazin-6-yl)-N-(1-(methylsulfonyl)piperidin-4-yl)pyrimidin-2-amine]: the IC50 on CDK2 (cyclin A) is < 1 nM; against PI3Kδ it was > 36600 nM; on CDK1 (cyclin B) it was < 1 nM; at CDK4, 2 nM; at CDK6, 9 nM; with MCF-7, 525 nM. In the test on DU4475, the IC50 stood at 230 nM.

With `CC(C)N1CCOc2c(F)cc(-c3nc(Nc4cc(N5CCCNCC5)ccn4)ncc3F)cc21` [Compound 2, N-(4-(1,4-diazepan-1-yl)pyridin-2-yl)-5-fluoro-4-(8-fluoro-4-isopropyl-3,4-dihydro-2H-benzo[b][1,4]oxazin-6-yl)pyrimidin-2-amine], the IC50 at CDK2 (cyclin A) was 1230 nM; on PI3Kδ it was > 50000 nM; against CDK1 (cyclin B), 2800 nM; on CDK4, > 200 nM; on CDK6, > 200 nM; in the test with MCF-7, 823 nM. This compound also gave a 50% inhibitory concentration (IC50) in the test with DU4475 of 1640 nM.

Take `CC(C)N1CCOc2c(F)cc(-c3nc(Nc4ccc(N5CCNC(=O)C5)cn4)ncc3F)cc21` [Compound 85, 4-(6-((5-fluoro-4-(8-fluoro-4-isopropyl-3,4-dihydro-2H-benzo[b][1,4]oxazin-6-yl)pyrimidin-2-yl)amino)pyridin-3-yl)piperazin-2-one]: the IC50 against CDK2 (cyclin A) stood at 2470 nM; on CDK1 (cyclin B), 4550 nM; at CDK4, 10 nM; on CDK6, 26 nM; in the test with MCF-7, 392 nM; in the test on DU4475 it was 3610 nM.

For `CCN1CCC(COc2ccc(Nc3ncc(F)c(-c4cc(F)c5c(c4)N(C(C)C)CCO5)n3)nc2)CC1` [Compound 3, N-(5-((1-ethylpiperidin-4-yl)methoxy)pyridin-2-yl)-5-fluoro-4-(8-fluoro-4-isopropyl-3,4-dihydro-2H-benzo[b][1,4]oxazin-6-yl)pyrimidin-2-amine], the IC50 at CDK2 (cyclin A) was 207 nM; on PI3Kδ, > 50000 nM; against CDK1 (cyclin B) it was 1490 nM; at CDK4 it was 5 nM; on CDK6 it was 6.5 nM; with MCF-7 it was 60 nM. In the test on DU4475, this compound had a 50% inhibitory concentration (IC50) of 655 nM.
